Measurements: paper PMC11942905, “Identification of a Selective Inhibitor of Human NFS1, a Cysteine Desulfurase Involved in Fe-S Cluster Assembly, via Structure-Based Virtual Screening” (International Journal of Molecular Sciences, 2025)
“Also recorded” adds a separate entry of the source. Values belong to the compound of their own block, whether it stands above or below them.

Experiments:
human NFS1 [1] = target: T1, human NFS1 (Homo sapiens, UniProt Q9Y697); parameters: method as in PMID 36103522; conditions: cited from earlier work
T1 construct: His tag (N); made in house; host or cells: E. coli BL21(DE3)
T1 sequence (Q9Y697 56-457): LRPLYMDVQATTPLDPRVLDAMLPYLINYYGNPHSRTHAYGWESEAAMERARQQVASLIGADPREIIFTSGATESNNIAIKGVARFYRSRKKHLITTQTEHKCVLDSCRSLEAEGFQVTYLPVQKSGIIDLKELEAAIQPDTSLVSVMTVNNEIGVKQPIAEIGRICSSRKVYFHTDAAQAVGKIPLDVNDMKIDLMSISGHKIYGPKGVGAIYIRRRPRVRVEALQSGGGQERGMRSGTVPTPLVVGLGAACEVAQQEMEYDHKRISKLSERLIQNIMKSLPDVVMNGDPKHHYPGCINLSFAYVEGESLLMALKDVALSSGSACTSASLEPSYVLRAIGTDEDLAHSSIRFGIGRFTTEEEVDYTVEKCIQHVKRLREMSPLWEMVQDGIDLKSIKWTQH

human NFS1 [2] = target: T1, human NFS1; test: NFS1 inhibition assay (H2S-producing, methylene blue); format: biochemical; conditions: for inhibition of NFS1: at 100 µM; for IC50: recombinant human NFS1Δ1-55, 1 mM cysteine, n = 4, read-out: IC50, NFS1 activity
Method: The 42 candidate compounds were tested for their inhibitory effects on human NFS1 using an in vitro H2S-producing assay. […] Subsequently, the effects of the selected compounds (100 µM) on human NFS1 activity were evaluated.
The activity of NFS1 was determined using a methylene blue assay as described previously, with some modifications. Briefly, reaction mixtures (200 μL) containing 50 mM of Tris-HCl (pH 8.0), 10 μM of PLP, 1 mM of DTT, and 10 μg of NFS1 were preincubated at 37 °C for 3 min. The reaction was then initiated by adding 1 mM of cysteine. After 15 min of incubation at 37 °C, the reaction was quenched by adding 25 μL of 20 mM N,N-dimethyl-p-phenylenediamine in 7.2 M of HCl and 25 μL of 30 mM FeCl3 in 1.2 M of HCl. Subsequently, the reaction mixtures were incubated for another 15 min at 37 °C, followed by centrifugation at 12,000 rpm for 10 minutes to remove the precipitates. The absorbance of the supernatant was measured at 670 nm. A reaction mixture without the substrate cysteine was used as the negative control. The H2S concentration was calculated based on a standard curve prepared using various concentrations of sodium sulfide (Na2S).
For the NFS1 inhibition assays, all test compounds were dissolved in dimethyl sulfoxide (DMSO) to prepare 10 mM stock solutions, which were stored at −80 °C. The stock solutions were diluted to the appropriate concentrations with 50 mM of Tris-HCl (pH 8.0) as required for the experiments. A reaction mixture containing DMSO but no test compounds was used as a negative control. The dose-dependent effects of the inhibitors on NFS1 activity were determined using the methylene blue assay described above. The IC50 values of the inhibitors were calculated by adding different concentrations of the inhibitors to the enzyme reaction mixtures.

A549 cells [3] = test: Endogenous ROS levels, DCFH-DA fluorescence; format: cell-based, human; conditions: 48 h, Compound 53 50 µM, Erastin 2.5 µM, 2-AAPA 20 µM
Method: Endogenous ROS levels in A549 cells were detected using the fluorescent dye DCFH-DA [48, 49]. A549 cells were cultured in DMEM supplemented with 10% fetal bovine serum at 37 °C in a humidified atmosphere containing 5% CO2. […] Subsequently, the cells were washed three times with prewarmed PBS, and fresh medium containing 10 μM of DCFH-DA was added. After 30 min of incubation, the cells were washed again with prewarmed PBS, fresh medium was added, and the cells were imaged using an inverted fluorescence microscope (Leica, Wetzlar, Germany). Images of live cells were acquired in six different fields. ImageJ software was used to analyze the images.

A549 cells [4] = test: CCK-8 cell viability assay, A549; format: cell-based, human; conditions: for IC50: Homo sapiens, A549, CCK-8, 72 h
Method: (§1) Human bronchial epithelial cells (BEAS-2B) and human lung adenocarcinoma A549 cells were purchased from the Institute of Biochemistry and Cell Biology, Chinese Academy of Sciences (Shanghai, China). BEAS-2B and A549 cells were cultured in DMEM supplemented with 10% (v/v) fetal bovine serum and 1% (v/v) penicillin–streptomycin solution at 37 °C in a humidified atmosphere containing 5% CO2. The half-maximal inhibitory concentration (IC50) values of the selected compounds against BEAS-2B and A549 cells were determined using the CCK-8 assay. Briefly, the cells were seeded into 96-well culture plates at a density of 5 × 10^3 cells per well. After 12 h of culture, fresh medium containing varying concentrations of the selected compounds dissolved in DMSO was added for an additional 72-hour incubation. Subsequently, 10 μL of CCK-8 solution was added to each well, followed by a further 1.5-h incubation at 37 °C. The optical density at 450 nm (OD450) for each well was measured using a microplate reader. Medium containing DMSO alone was used as the control group. Cell viability was calculated as the percentage of the OD450 of the experimental group compared to that of the control group, which was set at 100%.

A549 cells [5] = test: Lipid peroxide (LPO) content; format: cell-based, human; conditions: 48 h, Erastin 2.5 µM, Compound 53 50 µM, 2-AAPA 20 µM, alone or combined
Method: A549 cells were seeded in 10 cm dishes at a density of 2 × 10^6 cells per dish and cultured until they reached 40–60% confluence. […] Lipid peroxidation (LPO) levels were measured using a Lipid Peroxide (LPO) Content Assay Kit (Solarbio, China) following the manufacturer’s instructions.

[6] = target: T2, cystathionine-γ-lyase (CSE) (Homo sapiens, UniProt P32929); test: Selectivity assay, H2S-producing activity of CSE; format: biochemical; conditions: at 100 µM
T2 construct: made in house; host or cells: E. coli
T2 sequence (P32929 whole entry): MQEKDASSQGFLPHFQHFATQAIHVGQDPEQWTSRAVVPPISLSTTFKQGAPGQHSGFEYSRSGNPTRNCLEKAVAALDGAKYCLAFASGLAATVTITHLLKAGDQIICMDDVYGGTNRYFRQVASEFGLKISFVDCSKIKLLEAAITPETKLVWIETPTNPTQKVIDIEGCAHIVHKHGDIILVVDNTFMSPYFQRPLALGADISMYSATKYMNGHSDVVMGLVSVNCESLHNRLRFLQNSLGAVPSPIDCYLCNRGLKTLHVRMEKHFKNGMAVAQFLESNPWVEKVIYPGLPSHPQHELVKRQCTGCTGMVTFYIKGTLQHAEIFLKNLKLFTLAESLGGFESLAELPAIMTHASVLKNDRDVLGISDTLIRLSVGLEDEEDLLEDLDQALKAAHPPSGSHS
Method: (§2) To evaluate the selectivity of Compounds 53 and 56, their effects on the activities of two other PLP-dependent enzymes, human cystathionine-β-synthase (CBS) and cystathionine-γ-lyase (CSE), were determined using a H2S-producing assay. Human CBS and CSE were expressed and purified in E. coli with a purity exceeding 90%, as confirmed by SDS-PAGE (Figures S4A and S5A). Subsequently, the H2S-producing activities of CBS and CSE were assessed in the presence of different concentrations of Compounds 53 and 56. A widely used CBS inhibitor, AOAA, and a specific CSE inhibitor, PAG, were used as positive controls (Figures S4B and S5B).
(§3) The H2S-producing activity of CBS was measured as previously described. The reaction mixture (200 μL) contained 50 mM of Hepes buffer (pH 7.4), 2 mM of homocysteine, 10 μM of PLP, 0.4 mM of lead nitrate, and 5 μg of CBS protein. It was preincubated at 37 °C for 3 min, and the reaction was initiated by the addition of 2 mM of cysteine. The reaction was monitored in a multifunctional microplate reader at 37 °C for 10 min. An extinction coefficient of 5500 M^−1 cm^−1 at 390 nm was used to calculate the lead sulfide concentration. The method used to determine CSE activity in the H2S-producing assay was identical to the CBS assay, except that 1 mM of cysteine was used as the sole substrate. […]

[7] = target: T3, human cystathionine-β-synthase (CBS) (Homo sapiens, UniProt P35520); test: Selectivity assay, H2S-producing activity of CBS; format: biochemical; conditions: at 100 µM
T3 construct: made in house; host or cells: E. coli
T3 sequence (P35520 1-551): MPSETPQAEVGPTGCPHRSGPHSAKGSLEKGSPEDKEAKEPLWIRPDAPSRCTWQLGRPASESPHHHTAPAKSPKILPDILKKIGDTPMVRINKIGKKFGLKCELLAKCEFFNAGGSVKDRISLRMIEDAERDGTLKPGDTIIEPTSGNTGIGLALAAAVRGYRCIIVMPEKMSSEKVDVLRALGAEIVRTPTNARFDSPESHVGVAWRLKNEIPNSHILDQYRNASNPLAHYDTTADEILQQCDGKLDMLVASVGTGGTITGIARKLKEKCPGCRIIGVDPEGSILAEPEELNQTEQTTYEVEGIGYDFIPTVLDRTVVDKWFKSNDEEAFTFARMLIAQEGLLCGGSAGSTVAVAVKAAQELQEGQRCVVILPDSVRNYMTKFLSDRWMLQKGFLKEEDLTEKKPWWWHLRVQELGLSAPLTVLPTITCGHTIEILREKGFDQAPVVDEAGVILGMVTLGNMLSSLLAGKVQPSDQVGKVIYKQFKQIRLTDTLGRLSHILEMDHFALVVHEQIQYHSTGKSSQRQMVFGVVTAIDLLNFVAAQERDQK
Method: as §2, §3

BEAS-2B cells = test: CCK-8 cell viability assay, BEAS-2B; format: cell-based; conditions: Homo sapiens, CCK-8, 72 h
Method: as §1

[8] = tested on: cysteine desulfurase activity of Plasmodium falciparum; parameters: method as in PMID 24709262; conditions: cited from earlier work

Structure (SMILES): COCC1(CO)C(=O)C2CCN1CC2 (stereo not shown) [APR-246, eprenetapopt]
concentrations required to inhibit NFS1 (human NFS1 [1]): millimolar concentrations

Structure (SMILES): CC(=O)NC(CSC(=O)Nc1ccc(NC(=O)SCC(NC(C)=O)C(=O)O)cc1)C(=O)O (stereo not shown) [Compound 2-AAPA, 2-Acetylamino-3-[4-(2-acetylamino-2-carboxyethylsulfanylcarbonylamino)phenylcarbamoylsulfanyl] propionic acid]
intracellular ROS levels (A549 cells [3]): significantly elevated cellular ROS levels | IC50 (A549 cells [4]): ~20 µM | intracellular lipid peroxide (LPO) levels (A549 cells [5]): no significant changes

Structure (SMILES): N[C@@H]1CON=C1O [D-cycloserine]
IC50 [8]: ~29 µM

Structure (SMILES): CCOc1ccccc1-n1c(C(C)N2CCN(C(=O)COc3ccc(Cl)cc3)CC2)nc2ccccc2c1=O (stereo not shown) [Erastin]
intracellular ROS levels (A549 cells [3]): significantly increased intracellular ROS levels; also recorded: significantly elevated cellular ROS levels | effect on cell viability (A549 cells [4]; A549 cells, 2.5 µM): did not significantly affect cell viability | intracellular lipid peroxide (LPO) levels (A549 cells [5]): elevated LPO levels

Second part, led by results:

inhibition of NFS1 (human NFS1 [2]): approximately 50% | IC50 (human NFS1 [2]): 153 ± 3.42 µM
Structure (SMILES): COc1cc(/C=N\NC(=O)Cc2nnc(NC(=O)c3ccc([N+](=O)[O-])cc3)s2)ccc1O [Compound 1]

inhibition of NFS1 (human NFS1 [2]): approximately 50% | IC50 (human NFS1 [2]): 141 ± 3.49 µM
Structure (SMILES): O=c1cc(-c2ccc(O)c(O)c2)oc2cc(O[C@H]3O[C@H](CO)[C@@H](O)[C@@H](O)[C@@H]3O)cc(O)c12 [Compound 37]

IC50 (A549 cells [4]): 27.7 ± 1.99 µM | inhibitory effect on CSE [6]: no significant inhibitory effects | inhibitory effect on CBS [7]: no significant inhibitory effects
Structure (SMILES): COc1cc(/C=N/NC(=O)CSc2nnc(SCc3ccccc3)s2)cc(OC)c1O [Compound 56]
IC50 (BEAS-2B cells): 78.4 ± 2 µM
